pIC50: −log10 of the molar value.
Columns and labels:
Type in all cases: functional, cell-based
KB = experiment: Cytotoxicity against human KB cells incubated for 48 hrs by MTT assay
A549 = experiment: Cytotoxicity against human A549 cells incubated for 48 hrs by MTT assay; settings: A549, 48 h
MCF7 = experiment: Cytotoxicity against human MCF7 cells incubated for 48 hrs by MTT assay; settings: MCF7, 48 h

| SMILES | pIC50 (KB) | pIC50 (A549) | pIC50 (MCF7) |
| --- | --- | --- | --- |
| COc1cc(O)c2c(c1)[C@@H]1O[C@]3(C)C[C@@H]1[C@@H](CO3)C2=O | < 4.40 | < 4.40 | < 4.40 |
| COC1=CC(=O)[C@H](O)[C@H](C)C12Oc1cccc3cccc(c13)O2 | < 4.40 | < 4.40 | < 4.40 |
| COc1cc(O)c2c(c1)[C@@H](O)[C@@H]1C[C@H](C)OC[C@H]1C2=O | < 4.40 | < 4.40 | < 4.40 |
| COc1cc(O)c2c(c1)C(=O)C1=C(C2=O)[C@](C)(OC)OCC1 | 4.78 | 4.55 | 4.94 |
| COc1cc(C)cc(O)c1 | < 4.40 | < 4.40 | < 4.40 |
| COc1cc(O)c2c(c1)C(=O)C1=C(COC(C)=C1)C2=O | < 4.40 | < 4.40 | < 4.40 |
| COc1cc(O)c2c(c1)C(=O)C1=C(COC(C)(O)C1)C2=O (stereo not given) | < 4.40 | < 4.40 | < 4.40 |
| COc1cc(O)c2c(c1)[C@@H](O)[C@@H]1C[C@@H](C)OC[C@H]1C2=O | < 4.40 | < 4.40 | < 4.40 |
| COc1cc(O)c2c(c1)[C@@H](O)[C@H]1C[C@H](C)OC=C1C2=O | < 4.40 | < 4.40 | < 4.40 |
| COc1cc(O)c2c(c1)C(=O)C1=C(C2=O)C(O)OC(C)=C1 (stereo not given) [ASCOMYCONE B] | < 4.40 | < 4.40 | < 4.40 |
